Molecules are shown by their SMILES.

The values below come from EP2298778A1, “IMIDAZOTHIAZOLE DERIVATIVE HAVING 4,7-DIAZASPIROÝ2.5¨OCTANE RING STRUCTURE” (Daiichi Sankyo Company, Limited, priority 2008, dated 2009).

The nature of this data set: Metabolic stability test (microsomal metabolism test). The class given is in vitro ADME. The following applies: pH 7.4; human-derived liver microsomes, test compound remaining after addition of NADP+ and incubation at 37°C for 30 minutes; read-out: metabolic stability of T/C%. The procedure: (Test Example 3 Metabolic stability test) 100 µL of 100 mM phosphate buffer solution (pH 7.4) containing 3 µM test compound was added to 100 µL of reaction solution containing 100 mM phosphate buffer solution (pH 7.4), 30 mM glucose 6-phosphate, 10 mM MgCl2·6H2O, 3 units/mL glucose 6-phosphate 1-dehydrogenase, and 0.3 to 1.5 mgP/mL human liver microsomes and the mixture was incubated at 37°C for 20 minutes. Then, 70 µL of 100 mM phosphate buffer solution (pH 7.4) containing 3 mM NADP^+ was added and the mixture was incubated at 37°C for 30 minutes to conduct a microsomal metabolism test. The metabolic stability was calculated according to the following formula: T/C (%) = ((concentration of test compound after addition of NADP)^+and incubation for30minutes)/((concentration of test compound before addition of NADP)^+) × 100. [formula] […]
Turning to `CC(C)C1=C(C(=O)N2[C@H](C)CC[C@H]2C(=O)N2CCNC3(CC3)C2)SC2=N[C@@](C)(c3ccc(Cl)cc3)[C@@H](c3ccc(Cl)cc3)N21` [Example 1, 7-[(5R)-1-{[(5R,6S)-5,6-bis(4-chlorophenyl)-3-isopropyl-6-methyl-5,6-dihydroimidazo[2,1-b][1,3]thiazol-2-yl]carbonyl}-5-methyl-L-prolyl]-4,7-diazaspiro[2.5]octane], the remaining at 0.5 h is at least 50%.
Then `CC(C)C1=C(C(=O)N2[C@H](C)CC[C@H]2C(=O)N2CCN(C)C3(CC3)C2)SC2=N[C@@](C)(c3ccc(Cl)cc3)[C@@H](c3ccc(Cl)cc3)N21` [Example 2, 7-[(5R)-1-{[(5R,6S)-5,6-bis(4-chlorophenyl)-3-isopropyl-6-methyl-5,6-dihydroimidazo[2,1-b][1,3]thiazol-2-yl]carbonyl}-5-methyl-L-prolyl]-4-methyl-4,7-diazaspiro[2.5]octane], with at least 50%; and `CC(C)C1=C(C(=O)N2[C@H](C)CC[C@H]2C(=O)N2CCN(CCO)C3(CC3)C2)SC2=N[C@@](C)(c3ccc(Cl)cc3)[C@@H](c3ccc(Cl)cc3)N21` [Example 3, 2-{7-[(5R)-1-{[(5R,6S)-5,6-bis(4-chlorophenyl)-3-isopropyl-6-methyl-5,6-dihydroimidazo[2,1-b][1,3]thiazol-2-yl]carbonyl}-5-methyl-L-prolyl]-4,7-diazaspiro[2.5]oct-4-yl}ethanol], with at least 50%.
Then `CC(C)C1=C(C(=O)N2[C@H](C)CC[C@H]2C(=O)N2CCNC3(CC3)C2)SC2=N[C@@](C)(c3ccc(Cl)cc3)[C@@H](c3ccc(Cl)c(F)c3)N21` [Example 5, 7-[(5R)-1-{[(5R,6S)-5-(4-chloro-3-fluorophenyl)-6-(4-chlorophenyl)-3-isopropyl-6-methyl-5,6-dihydroimidazo[2,1-b][1,3]thiazol-2-yl]carbonyl}-5-methyl-L-prolyl]-4,7-diazaspiro[2.5]octane], with at least 50%; and `CC(C)C1=C(C(=O)N2[C@H](C)CC[C@H]2C(=O)N2CCN(C)C3(CC3)C2)SC2=N[C@@](C)(c3ccc(Cl)cc3)[C@@H](c3ccc(Cl)c(F)c3)N21` [Example 6, 7-[(5R)-1-{[(5R,6S)-5-(4-chloro-3-fluorophenyl)-6-(4-chlorophenyl)-3-isopropyl-6-methyl-5,6-dihydroimidazo[2,1-b][1,3]thiazol-2-yl]carbonyl}-5-methyl-L-prolyl]-4-methyl-4,7-diazaspiro[2.5]octane], with at least 50%; and `CC(C)C1=C(C(=O)N2[C@H](C)CC[C@H]2C(=O)N2CCN(CCO)C3(CC3)C2)SC2=N[C@@](C)(c3ccc(Cl)cc3)[C@@H](c3ccc(Cl)c(F)c3)N21` [Example 7, 2-{7-[(5R)-1-{[(5R,6S)-5-(4-chloro-3-fluorophenyl)-6-(4-chlorophenyl)-3-isopropyl-6-methyl-5,6-dihydroimidazo[2,1-b][1,3]thiazol-2-yl]carbonyl}-5-methyl-L-prolyl]-4,7-diazaspiro[2.5]oct-4-yl}ethanol], with at least 50%.
In the case of `CC(C)C1=C(C(=O)N2[C@H](C)CC[C@H]2C(=O)N2CCNC3(CC3)C2)SC2=N[C@@](C)(c3ccc(Cl)nc3)[C@@H](c3ccc(Cl)cc3)N21` [Example 8, 7-[(5R)-1-{[(5R,6S)-5-(4-chlorophenyl)-6-(6-chloropyridin-3-yl)-3-isopropyl-6-methyl-5,6-dihydroimidazo[2,1-b][1,3]thiazol-2-yl]carbonyl}-5-methyl-L-prolyl]-4,7-diazaspiro[2.5]octane] it was at least 50%; in that of `CC(C)C1=C(C(=O)N2[C@H](C)CC[C@H]2C(=O)N2CCN(C)C3(CC3)C2)SC2=N[C@@](C)(c3ccc(Cl)nc3)[C@@H](c3ccc(Cl)cc3)N21` [Example 9, 7-[(5R)-1-{[(5R,6S)-5-(4-chlorophenyl)-6-(6-chloropyridin-3-yl)-3-isopropyl-6-methyl-5,6-dihydroimidazo[2,1-b][1,3]thiazol-2-yl]carbonyl}-5-methyl-L-prolyl]-4-methyl-4,7-diazaspiro[2.5]octane], at least 50%; in that of `CC(C)C1=C(C(=O)N2[C@H](C)CC[C@H]2C(=O)N2CCN(CCO)C3(CC3)C2)SC2=N[C@@](C)(c3ccc(Cl)nc3)[C@@H](c3ccc(Cl)cc3)N21` [Example 10, 2-{7-[(5R)-1-{[(5R,6S)-5-(4-chlorophenyl)-6-(6-chloropyridin-3-yl)-3-isopropyl-6-methyl-5,6-dihydroimidazo[2,1-b][1,3]thiazol-2-yl]carbonyl}-5-methyl-L-prolyl]-4,7-diazaspiro[2.5]oct-4-yl}ethanol], at least 50%.
Turning to `CC(C)C1=C(C(=O)N2[C@H](C)CC[C@H]2C(=O)N2CCNC3(CC3)C2)SC2=N[C@@](C)(c3ccc(Cl)nc3)[C@@H](c3ccc(Cl)c(F)c3)N21` [Example 11, 7-[(5R)-1-{[(5R,6S)-5-(4-chloro-3-fluorophenyl)-6-(6-chloropyridin-3-yl)-3-isopropyl-6-methyl-5,6-dihydroimidazo[2,1-b] [1,3]thiazol-2-yl]carbonyl}-5-methyl-L-prolyl]-4,7-diazaspiro[2.5]octane], the remaining at 0.5 h is at least 50%.
In the case of `CC(C)C1=C(C(=O)N2[C@H](C)CC[C@H]2C(=O)N2CCN(C)C3(CC3)C2)SC2=N[C@@](C)(c3ccc(Cl)nc3)[C@@H](c3ccc(Cl)c(F)c3)N21` [Example 12, 7-[(5R)-1-{[(5R,6S)-5-(4-chloro-3-fluorophenyl)-6-(6-chloropyridin-3-yl)-3-isopropyl-6-methyl-5,6-dihydroimidazo[2,1-b][1,3]thiazol-2-yl]carbonyl}-5-methyl-L-prolyl]-4-methyl-4,7-diazaspiro[2.5]octane] it was at least 50%.
Then `CC(C)C1=C(C(=O)N2[C@H](C)CC[C@H]2C(=O)N2CCN(CCO)C3(CC3)C2)SC2=N[C@@](C)(c3ccc(Cl)nc3)[C@@H](c3ccc(Cl)c(F)c3)N21` [Example 13], with at least 50%.
Then `CCN1CCN(C(=O)[C@@H]2CC[C@@H](C)N2C(=O)C2=C(C(C)C)N3C(=N[C@@](C)(c4ccc(Cl)nc4)[C@H]3c3ccc(Cl)c(F)c3)S2)CC12CC2` [Example 14, 7-[(5R)-1-{[(5R,6S)-5-(4-chloro-3-fluorophenyl)-6-(6-chloropyridin-3-yl)-3-isopropyl-6-methyl-5,6-dihydroimidazo[2,1-b][1,3]thiazol-2-yl]carbonyl}-5-methyl-L-prolyl]-4-ethyl-4,7-diazaspiro[2.5]octane], with at least 50%.
`CC(C)C1=C(C(=O)N2[C@H](C)CC[C@H]2C(=O)N2C[C@@H](C)NC3(CC3)C2)SC2=N[C@@](C)(c3ccc(Cl)cc3)[C@@H](c3ccc(Cl)cc3)N21` [Example 16, (5R)-7-[(5R)-1-{[(5R,6S)-5,6-bis(4-chlorophenyl)-3-isopropyl-6-methyl-5,6-dihydroimidazo[2,1-b][1,3]thiazol-2-yl]carbonyl}-5-methyl-L-prolyl]-5-methyl-4,7-diazaspiro[2.5]octane]: the remaining at 0.5 h is at least 50%.
In the case of `CC(C)C1=C(C(=O)N2[C@H](C)CC[C@H]2C(=O)N2C[C@@H](C)NC3(CC3)C2)SC2=N[C@@](C)(c3ccc(Cl)nc3)[C@@H](c3ccc(Cl)c(F)c3)N21` [Example 17, (5R)-7-[(5R)-1-{ [(5R,6S)-5-(4-chloro-3-fluorophenyl)-6-(6-chloropyridin-3-yl)-3-isopropyl-6-methyl-5,6-dihydroimidazo[2,1-b][1,3]thiazol-2-yl]carbonyl}-5-methyl-L-prolyl]-5-methyl-4,7-diazaspiro[2.5]octane] it was at least 50%; in that of `CC(C)C1=C(C(=O)N2[C@H](C)CC[C@H]2C(=O)N2C[C@@H](C)N(C)C3(CC3)C2)SC2=N[C@@](C)(c3ccc(Cl)nc3)[C@@H](c3ccc(Cl)c(F)c3)N21` [Example 18, (5R)-7-[(5R)-1-{[(5R,6S)-5-(4-chloro-3-fluorophenyl)-6-(6-chloropyridin-3-yl)-3-isopropyl-6-methyl-5,6-dihydroimidazo[2,1-b][1,3]thiazol-2-yl]carbonyl}-5-methyl-L-prolyl]-4,5-dimethyl-4,7-diazaspiro[2.5]octane], at least 50%; in that of `CC(C)C1=C(C(=O)N2[C@H](C)CC[C@H]2C(=O)N2C[C@H](C)NC3(CC3)C2)SC2=N[C@@](C)(c3ccc(Cl)nc3)[C@@H](c3ccc(Cl)c(F)c3)N21` [Example 19, (5S)-7-[(5R)-1-([(5R,6S)-5-(4-chloro-3-fluorophenyl)-6-(6-chloropyridin-3-yl)-3-isopropyl-6-methyl-5,6-dihydroimidazo[2,1-b][1,3]thiazol-2-yl]carbonyl}-5-methyl-L-prolyl]-5-methyl-4,7-diazaspiro[2.5]octane], at least 50%.
In the case of `CC(C)C1=C(C(=O)N2[C@H](C)CC[C@H]2C(=O)N2C[C@H](C)N(C)C3(CC3)C2)SC2=N[C@@](C)(c3ccc(Cl)nc3)[C@@H](c3ccc(Cl)c(F)c3)N21` [Example 20, (5S)-7-[(5R)-1-{[(5R,6S)-5-(4-chloro-3-fluorophenyl)-6-(6-chloropyridin-3-yl)-3-isopropyl-6-methyl-5,6-dihydroimidazo[2,1-b][1,3]thiazol-2-yl]carbonyl}-5-methyl-L-prolyl]-4,5-dimethyl-4,7-diazaspiro[2.5]octane] it was at least 50%; in that of `CC(C)C1=C(C(=O)N2[C@H](C)CC[C@H]2C(=O)N2CC3(CC3)NC[C@@H]2C)SC2=N[C@@](C)(c3ccc(Cl)nc3)[C@@H](c3ccc(Cl)c(F)c3)N21` [Example 21, (6S)-7-[(5R)-1-{[(5R,6S)-5-(4-chloro-3-fluorophenyl)-6-(6-chloropyridin-3-yl)-3-isopropyl-6-methyl-5,6-dihydroimidazo[2,1-b][1,3]thiazol-2-yl]carbonyl}-5-methyl-L-prolyl]-6-methyl-4,7-diazaspiro[2.5]octane], at least 50%.
